# Experimental data taken from US20240092778A1, “TOPICAL PHARMACEUTICAL COMPOSITIONS AND METHODS” (PYRAMID BIOSCIENCES, INC., priority 2020, published 2024).
# Like-named read-outs stand apart in the source and are kept apart here.
# How the values were obtained:
# [1] = Drug excipient compatibility study (physical appearance, % label claim, total impurities); type: physicochemical
# Method: The goal of the drug excipient compatibility study was to identify excipients that are incompatible with the Compound A mesylate salt (Form B), resulting in high impurity growth compared to the baseline (To). The compatibility of the compound in selected excipients was assessed by mixing the compound with individual excipients and placing the mixtures on stability studies for 2 or 4 weeks at 25° C./60% RH and 40° C./75% RH. If the compound was insoluble in any excipient, the sample was prepared by first dissolving Compound A mesylate salt in a solvent (purified water) and then mixing with the excipient in a 1:1 ratio. A stock solution of the Compound A mesylate salt in water (0.45% w/w) was used. The total level of impurities over 4 weeks at the two stability conditions were measured.
# Physical appearance of Drug-Excipient mixture was evaluated visually, and the observations were recorded which are summarized in Table 2.
# In summary, the compound was stable when mixed with the following chemicals: isopropyl myristate, ethanol, medium chain triglycerides, light mineral oil, cyclomethicone, white petrolatum, span 80, glycerin, sorbitol solution 70%, HPMC, HPC, and stearyl alcohol.
# rabbits = test: Skin irritation (erythema and edema); type: in vivo, rabbit
# [2] = tested on: Primary human keratinocytes; test: Human primary keratinocytes proliferation assay (BrdU incorporation); type: cell-based; conditions: for IC50: Homo sapiens, Keratinocyte, read-out: calculated potency (IC50) to block cell proliferation
# Method: Primary human keratinocytes (KMF112410A) were grown in 96-well plates and exposed to different concentration of Compound A mesylate salt, 0.1 nM to 100 μM, for 24 hours or 72 hours.
# After 4 hours, the medium was removed and 100 μL of the Fixing/Denaturing solution (paraformaldehyde) was added to each well and allowed to incubate at room temperature for 30 minutes. After 30 minutes, the fixing solution was removed and 100 μl of the prepared 1× detection antibody (Cell Signaling Assay Kit, Catalogue No. 6813) was added to each well and allowed to incubate at room temperature for 1 hour. The plate was then washed 3 times with prepared wash buffer (details of wash buffer; PBS saline).
# After washing, 100 μL of the prepared 1× Horseradish Peroxidase (HRP)-conjugated secondary antibody solution was added to each well and allowed to incubate at room temperature for 30 minutes. The plate was then washed 3 times with prepared wash buffer.
# After washing the 100 μL 3,3′,5,5′-Tetramethylbenzidine (TMB) substrate was added to each well and incubated 30 minutes at room temperature. After 30 minutes, 100 μL of stop solution ([…]) was added to each well and the absorbance was read at 450 nm using a microplate Reader SpectraMax iD3 (Molecular Devices). The magnitude of the absorbance for the developed color is proportional to the quantity of BrdU incorporated into cells, which is a direct indication of cell proliferation, and negative control (50% supplemented keratinocyte growth medium alone) was used as reference to evaluate cell proliferation inhibition (levels <100%) or activation (levels >100%).
# [3] = Solubility of Compound A mesylate salt Form B in excipients and buffers; type: physicochemical
# Method: The solubility was determined visually. The approximate amount of drug dissolved was calculated as mg/g of compound soluble in each solvent tested.
# The steps involved in performing the solubility study were as follows: • a) Label scintillation vials appropriately for each excipient that were tested. • b) Stir bar was placed in each vial and weighed the empty vial containing stir bar and cap with inert liner. Recorded the TARE weight. • c) Approximately 5.0 g of each excipient was weighed into the designated vial and approximately 5 mg of the API (Compound A mesylate salt) was added to into each vial. • d) All the closed vials were placed on a multi-position stir plate and allowed to mix for at least 15 minutes at ambient conditions. • e) Visually inspected to see if the API has completely dissolved. • f) If the API has dissolved, the last 3 steps were repeated. Additional API aliquots added to the mixture were recorded till saturation solubility reached. […] Stirring the solutions was continued overnight at ambient temperature to confirm solubility is maintained. • g) If API has not completely dissolved, continue stirring samples overnight at ambient conditions. • h) The final weight of the vial, cap, stir bar, and sample were recorded. • i) Further, the final observations were recorded as needed to document the observations.
# Gottingen Minipigs = test: 28-day repeat dose dermal toxicity study; type: in vivo, minipig
# From the text: (§1) Toxicity evaluation of Compound A mesylate salt has comprised range-finding and pivotal repeat dose dermal and oral toxicology studies in minipigs, rats and dogs. The dermal route of administration was chosen because it is the intended to be the human therapeutic route. As per International Council for Harmonisation (ICH) guidelines, the oral route was selected in rats and dogs to assess systemic toxicity and to support dermal administration. The minipig was selected as the species for formal dermal toxicology testing of Compound A mesylate salt.
# (§2) To support dermal administration of Compound A mesylate, in addition to oral repeat-dose toxicity studies in rats and dogs, dermal toxicity studies in minipigs were conducted. A 28-day repeat dose toxicity study was conducted by dermal application of Compound A mesylate salt at doses in the range of 0.1 mg/kg to 1 mg/kg.
# (§3) The 28-day dose toxicity study was initiated at doses in the range of 0.1 to 1.0 mg/kg.
# [4] = 28-day repeat dose dermal toxicity study; type: in vivo, minipig; conditions: Gottingen, minipig, in vivo, topical or ocular; for Cmax / AUC(0-t): 1 mg/kg/day dermal, Day 28; for AUC(0-t): read-out: AUC0-Tlast
# From the text: as §1, §2, §3
# guinea pigs = test: Contact sensitization; type: in vivo, guinea pig
# minipigs = test: Non-GLP 7-day intravenous study; type: in vivo, minipig; conditions: daily for 7 days
# Method: To understand the relationship between potential Compound A mesylate exposure and toxicity (clinical observations), a non-GLP intravenous study was conducted. In this study, minipigs were administered up to 10 mg/kg daily for 7 days by intravenous administration to determine Compound A mesylate exposure and clinical observations. Overall, minipigs tolerated intravenous dose of up to 10 mg/kg/day for 7 seven days without any adverse clinical signs.
# bovine cornea = test: Bovine corneal opacity and permeability (BCOP) assay
# [5] = Dog oral toxicity studies (one-month); type: in vivo; conditions: in vivo, one-month study
# From the text: as §1
# (§4) The NOAEL for the one-month study was 2 mg/kg/day.
# dogs = test: Dog oral toxicity studies (one-month); type: in vivo
# From the text: as §1, §4
# [6] = One-month rat oral toxicity study; type: in vivo; conditions: in vivo, oral, for the myocardial findings
# From the text: as §1
# (§5) The NOAEL for these findings was 0.5 mg/kg/day.
# rats = test: One-month rat oral toxicity study; type: in vivo
# From the text: as §1, §5
# human skin = test: Cumulative irritant patch test (RIPT, 21 days) in healthy participants; conditions: occlusive patch, healthy subjects
# From the text: The objective of this study was to assess the primary irritancy potential of Compound A mesylate Topical Cream in human skin using a Repeat Insult Patch Testing (RIPT) over twenty-one (21) days.
# This RIPT was an open-label, single-arm (cell), randomized, evaluator-blinded study wherein test products were applied under an occlusive dressing to the upper back or upper arm continuously and repeatedly to the same site for a period of 21 days. Three concentrations of The Cream described in Example 13 (0.1%, 0.03%, 0.01%) and Vehicle (Placebo Cream—0%) were applied to the skin of healthy subjects aged 18-70 with a Fitzpatrick Skin Type of I-III. In addition, one site was treated with 0.4 ml of 0.25% sodium lauryl sulfate (SLS) as a positive control and another site was treated with a plain Webril patch (cotton cloth) which served as a negative control. The total daily dose of Compound A received by each subject was 560 μg (0.4 ml of each of the three concentrations/3 different sites) or approximately 8 μg/kg. The evaluator graded the level of irritation for each test site at every study visit and was blinded as to the identity of the test products. The targeted sample size was at least 25 subjects (n=25) at completion.
# Approximately 0.4 ml of each test material was spread uniformly onto a 15 mm diameter circular disc of non-absorbing cotton cloth (Webril) using micropipettes or plastic tuberculin syringes. The treated circular disc was applied to the designated skin site (see Randomization Section below) measuring 15 mm in diameter on the upper arm or upper back. In addition to the test products, one site was treated with 0.4 ml of 0.25% sodium lauryl sulfate (SLS) as a positive control and another site was treated with a plain Webril patch (cotton cloth) as a negative control. Each site was covered with an occlusive tape (Blenderm, 3M) and the entire patch fastened to the skin with Scanpor or Hypafix Tape to ensure intimate contact with the skin. The initial patch was applied on Day 0 and grading began on Day 1.
# Subjects returned to the testing facility once daily (Monday to Friday). […] Subjects were questioned and assessed for adverse events as well as any changes in their health or concomitant medications at every study visit. […]
# All patches were inspected at each study visit and adhesion issues were noted when present. Patch sites were inspected and irritant reactions provoked during the study were recorded daily (Monday-Friday). […]
# The CII was calculated for each product as well as the positive and negative control sites. The CII is the ratio calculated by dividing the sum of the cumulative irritation scores (SCS) from all subjects by the number of subjects in the completed panel×the maximum tolerated score per patch site (3)×the number of grading assessments (15).
# [7] = tested on: Primary human keratinocytes; conditions: at their respective concentration (Dox 1 μM) after 24 and 72 hours of exposure
# Method: Cell death/apoptosis was determined by Propidium Iodide (PI) and Annexin V staining.
# For the cell death/apoptosis, human primary neonatal keratinocytes were cultured (5,000 cells/well) in clear bottom 96-well plates overnight. The next morning, growth medium was removed and replaced with 50% supplemented keratinocyte growth medium containing compounds and controls.
# After 24 or 72 hours treatment, 200 μL of the prepared 1:100 Annexin V (Biovision, catalog number K101) and PI in 1× binding buffer solution was added to each of the wells and allowed to incubate at room temperature for 5 minutes. Cells were then washed with DPBS (Dulbecco's Phosphate-Buffered Saline) and fixed for 30 minutes in 2% Paraformaldehyde (PFA). Following fixation, cells were washed 3× with 200 μL of DPBS. A final volume of 100 μL of DPBS were added to the wells. Quantification of Annexin V and PI were assessed using the Array Scan High Content Imaging System (ThermoFisher).
# The signal quantified for Annexin V, an early apoptosis event marker (FIG. 5) and PI to assess cell death (apoptosis and necrosis) was compared to negative control (50% supplemented media) to determine the percentage of viability (FIG. 6).
# TRKA = biological target: T1, TRKA (Homo sapiens, UniProt P04629); test: TRKA inhibition in cells (IC50); type: cell-based; conditions: read-out: half maximal inhibitory concentration (IC50) for TRKA
# T1 construct: host or cells: cells, not specified
# T1 sequence (P04629 33-796): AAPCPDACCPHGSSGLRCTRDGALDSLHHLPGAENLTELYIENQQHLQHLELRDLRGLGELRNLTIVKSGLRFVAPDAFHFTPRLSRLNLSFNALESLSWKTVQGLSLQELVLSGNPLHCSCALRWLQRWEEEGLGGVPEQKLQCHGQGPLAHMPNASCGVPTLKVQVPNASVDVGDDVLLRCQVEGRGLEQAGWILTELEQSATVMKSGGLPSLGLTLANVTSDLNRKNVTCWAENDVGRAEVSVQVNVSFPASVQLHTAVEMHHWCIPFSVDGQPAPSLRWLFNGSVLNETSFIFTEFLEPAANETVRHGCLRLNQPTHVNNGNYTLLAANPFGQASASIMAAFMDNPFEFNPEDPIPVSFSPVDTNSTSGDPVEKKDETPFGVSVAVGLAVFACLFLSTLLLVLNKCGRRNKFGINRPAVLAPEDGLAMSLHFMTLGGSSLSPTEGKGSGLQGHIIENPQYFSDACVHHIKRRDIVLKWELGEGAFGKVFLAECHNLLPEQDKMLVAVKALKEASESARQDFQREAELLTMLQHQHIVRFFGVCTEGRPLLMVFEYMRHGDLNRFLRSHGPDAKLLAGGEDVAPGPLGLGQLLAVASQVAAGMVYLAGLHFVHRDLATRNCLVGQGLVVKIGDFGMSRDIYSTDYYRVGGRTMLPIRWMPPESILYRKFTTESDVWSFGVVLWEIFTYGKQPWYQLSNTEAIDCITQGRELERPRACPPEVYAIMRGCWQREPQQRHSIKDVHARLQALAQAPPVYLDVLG
# From the text: (§6) Compound A is a highly specific pan-TRK inhibitor with a mechanism of action that is competitive with the adenosine triphosphate (ATP) binding site of TRKA.
# TRKC = biological target: T2, TRKC (Homo sapiens, UniProt Q16288); test: TRKC activity in cell-based system overexpressing wild-type full-length receptor; conditions: cell-based systems overexpressing wild-type, human TRK receptors
# T2 construct: in cell-based systems overexpressing wild-type, full-length, human TRK receptors; expressed in transfected cells
# T2 sequence (Q16288 32-839): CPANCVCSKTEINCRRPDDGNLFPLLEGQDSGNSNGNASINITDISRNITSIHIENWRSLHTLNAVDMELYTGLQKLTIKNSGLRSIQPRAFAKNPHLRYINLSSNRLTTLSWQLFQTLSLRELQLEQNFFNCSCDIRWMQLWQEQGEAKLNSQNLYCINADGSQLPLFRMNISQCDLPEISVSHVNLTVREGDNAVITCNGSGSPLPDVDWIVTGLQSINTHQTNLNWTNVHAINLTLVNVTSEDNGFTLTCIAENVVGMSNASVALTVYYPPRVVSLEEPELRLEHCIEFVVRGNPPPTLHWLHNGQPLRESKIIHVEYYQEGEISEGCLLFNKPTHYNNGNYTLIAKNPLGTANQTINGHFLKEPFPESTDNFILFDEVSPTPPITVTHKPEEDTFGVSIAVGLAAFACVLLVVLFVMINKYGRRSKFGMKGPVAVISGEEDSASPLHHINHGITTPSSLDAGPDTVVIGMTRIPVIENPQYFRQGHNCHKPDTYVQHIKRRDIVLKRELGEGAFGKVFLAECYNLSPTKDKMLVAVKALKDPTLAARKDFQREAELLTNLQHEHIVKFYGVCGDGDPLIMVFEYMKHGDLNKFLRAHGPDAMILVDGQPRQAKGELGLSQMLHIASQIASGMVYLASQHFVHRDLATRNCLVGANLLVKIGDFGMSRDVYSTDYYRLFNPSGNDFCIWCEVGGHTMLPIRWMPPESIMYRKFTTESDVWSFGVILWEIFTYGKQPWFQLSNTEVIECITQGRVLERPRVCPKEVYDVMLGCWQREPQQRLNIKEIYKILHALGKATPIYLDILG
# From the text: as §6
# TRKB = biological target: T3, TRKB (Homo sapiens, UniProt Q16620); test: TRKB activity in cell-based system overexpressing wild-type full-length receptor; conditions: cell-based systems overexpressing wild-type, human TRK receptors
# T3 construct: in cell-based systems overexpressing wild-type, full-length, human TRK receptors; expressed in transfected cells
# T3 sequence (Q16620 32-822): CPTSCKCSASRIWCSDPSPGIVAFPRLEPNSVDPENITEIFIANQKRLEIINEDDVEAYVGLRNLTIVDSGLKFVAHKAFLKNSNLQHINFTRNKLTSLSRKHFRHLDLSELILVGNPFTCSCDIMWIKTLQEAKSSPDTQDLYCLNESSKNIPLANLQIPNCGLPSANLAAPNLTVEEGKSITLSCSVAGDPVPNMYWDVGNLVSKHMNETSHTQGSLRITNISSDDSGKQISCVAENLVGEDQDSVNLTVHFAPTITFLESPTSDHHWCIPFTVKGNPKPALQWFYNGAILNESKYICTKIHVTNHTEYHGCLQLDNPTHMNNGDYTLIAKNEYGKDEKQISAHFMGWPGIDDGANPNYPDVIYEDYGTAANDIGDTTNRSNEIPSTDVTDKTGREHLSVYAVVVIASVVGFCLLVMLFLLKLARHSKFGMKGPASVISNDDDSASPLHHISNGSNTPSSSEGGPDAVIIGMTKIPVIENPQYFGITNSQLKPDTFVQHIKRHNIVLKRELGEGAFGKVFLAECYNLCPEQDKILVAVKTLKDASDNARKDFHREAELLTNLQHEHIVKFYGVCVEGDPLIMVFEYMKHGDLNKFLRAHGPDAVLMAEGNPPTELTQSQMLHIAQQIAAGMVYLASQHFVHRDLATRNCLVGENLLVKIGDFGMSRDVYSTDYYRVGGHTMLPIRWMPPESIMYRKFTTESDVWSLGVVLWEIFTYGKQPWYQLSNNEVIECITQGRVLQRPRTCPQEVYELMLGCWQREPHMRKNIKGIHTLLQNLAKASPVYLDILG
# From the text: as §6
# [8] = tested on: adults with recurrent glioblastoma multiforme (GBM); conditions: up to 60 mg daily; cited from earlier work
# [9] = T = 0 (Table 3a, 25° C./60% RH)
# [10] = T = 0 (Table 3b, 40° C./75% RH)
smiles,measurement,setting,value
"CC(C)Oc1cc(-n2cnc3ccc(N[C@@H](C)c4ncc(F)cn4)nc32)n[nH]1.CS(=O)(=O)O [Compound A mesylate salt, N-[(1S)-1-(5-fluoropyrimidin-2-yl)ethyl]-3-(5-isopropoxy-1H-pyrazol-3-yl)-3H-imidazo[4,5-b]pyridin-5-amine mesylate]",% Label Claim,[1]; [9],99.9%
same,Total Impurities (%),[1]; [9],0.00%
same,% Label Claim,[1]; [10],99.9%
same,Total Impurities (%),[1]; [10],0.00%
same,% Label Claim,"[1]; T = 2 weeks, 25° C./60% RH",99.2%
same,Total Impurities (%),"[1]; T = 2 weeks, 25° C./60% RH",0.00%
same,% Label Claim,"[1]; T = 2 weeks, 40° C./75% RH",99.7%
same,Oxidation Adjusted,"[1]; T = 2 weeks, 40° C./75% RH",0.00
same,Total Impurities (%),"[1]; T = 2 weeks, 40° C./75% RH",0.00%
same,% Label Claim,"[1]; T = 4 weeks, 25° C./60% RH",100.5%
same,Total Impurities (%),"[1]; T = 4 weeks, 25° C./60% RH",0.00%
same,% Label Claim,"[1]; T = 4 weeks, 40° C./75% RH",99.1%
same,Oxidation Adjusted,"[1]; T = 4 weeks, 40° C./75% RH",0.00
same,Total Impurities (%),"[1]; T = 4 weeks, 40° C./75% RH",0.00%
same,irritation (erythema and edema),rabbits,non-irritant
same,IC50,[2]; 24 hours,1250 nM
same,IC50,[2]; 72 hours,97 nM
same,dose showing significant inhibition of proliferation,[2]; after 24 hours of treatment,≥ 100 nM
same,dose showing significant inhibition of proliferation,[2]; after 72 h treatment,≥ 10 nM
same,Solubility,"[3]; in Ethanol, 24 hours at room temperature, visual",≥6.61 mg/g
same,water solubility,[3]; in water,~9.5 % w/w
same,Observation,[3]; solubility study in Citrate buffer (pH 5.6),Aggregated
same,Observation,[3]; solubility study in Ethanol,Solubilized
same,Observation,[3]; solubility study in Phosphate buffer (pH 7.4),Aggregated
same,tolerability of dermal application,"Gottingen Minipigs; 0.1, 0.3, and 1 mg/kg/day for 28 consecutive days",well tolerated
same,systemic exposure after dermal administration compared to intravenous administration,Gottingen Minipigs; minipigs,significantly lower
same,NOAEL at 28 days,"[4]; both sexes, dermal, 28 days",1 mg/kg/day
same,Cmax,"[4]; female, females",2.52 ng/mL
same,AUC(0-t),"[4]; female, females",37.2 ng·h/mL
same,Cmax,"[4]; male, males",3.03 ng/mL
same,AUC(0-t),"[4]; male, males",32.6 ng·h/mL
same,contact sensitization,guinea pigs,not considered to be contact sensitizers
same,tolerated intravenous dose without any adverse clinical signs,minipigs,up to 10 mg/kg/day
same,ocular irritation,bovine cornea,did not induce ocular irritation
same,NOAEL at 1 month,[5],2 mg/kg/day
same,"effects on body weight, food consumption, clinical pathology, or histopathology",dogs,no compound-related effects
same,tolerability,dogs; episodes of emesis and soft/fluid feces,generally well tolerated
same,NOAEL at 1 month,[6],0.5 mg/kg/day
same,histopathological findings,rats,"myocardial inflammation, fibrosis and increased plasma phosphate and Troponin I in a minority of animals"
same,food consumption and body weight gain,rats; all dose levels,marked increase
"CCCCCCCCCCCCOS(=O)(=O)[O-].[Na+] [0.25% Sodium Lauryl Sulfate, sodium lauryl sulfate]",Cumulative Irritation Index (CII),human skin,0.24
same,Mean Cumulative Irritation Score,human skin,10.89
same,Mean Daily Score,human skin,0.73
same,Sum of Cumulative Scores,human skin,294
COC(=O)[C@@]1(O)C[C@H]2O[C@]1(C)n1c3ccccc3c3c4c(c5c6ccccc6n2c5c31)C(=O)NC4 [Compound K252a],cell death (Annexin V / PI) versus negative control,[7],significant cell death
"CC(C)Oc1cc(-n2cnc3ccc(N[C@@H](C)c4ncc(F)cn4)nc32)n[nH]1 [Compound A, N-[(1S)-1-(5-fluoropyrimidin-2-yl)ethyl]-3-(5-isopropoxy-1H-pyrazol-3-yl)-3H-imidazo[4,5-b]pyridin-5-amine]",IC50,TRKA,0.2 nM
same,"in-vitro activity against TRKC, concentration",TRKC,below 5 nM
same,"in-vitro activity against TRKB, concentration",TRKB,below 5 nM
same,early efficacy signals in GBM patients,[8],No early efficacy signals
